Reference: the METLIN SMRT retention time set (Domingo-Almenara et al. 2019)

Test: gradient 5% acetonitrile 3 min, to 50% in 2 min, to 85% in 15 min, held 3 min, 100 µL/min
Details: column: Zorbax Extend-C18 2.1 x 50 mm; eluents: water / acetonitrile, 0.1% formic acid
In short: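 Using water and acetonitrile that each contained 0.1% formic acid, mixtures of ~100 pure standards were separated at 100 μL/min on a Zorbax Extend-C18 column (2.1 × 50 mm, 1.8 μm). The HPLC fed a quadrupole time-of-flight mass spectrometer working in positive and negative ionization mode, with dead and dwell volumes of 40 μL and 900 μL. Data were acquired over 3 months. Retention time was read from computationally picked adduct peaks after manual inspection of each.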

RP-LC retention time	SMILES
889 s	Cc1ccc(Cn2c(=O)c(SCC(=O)NCC3CCCO3)nc3ccccc32)cc1 (configuration not stated)
647 s	CN1C(=O)c2cccn2CC1CNC(=O)Nc1ccccc1 (configuration not stated)
1040 s	Cc1ccc(-c2nc(Nc3ccccc3Cl)sc2CC(=O)O)cc1
697 s	Cc1cccc(NC(=O)Nc2c(-c3ccc(F)cc3)nc3ccccn23)c1C
943 s	CC(C)Oc1ccc(CNC(=O)c2nnc(-c3ccc(S(=O)(=O)N(C)C)cc3)o2)cc1
735 s	Cc1ccccc1NC(=O)c1nc2ccccc2[nH]c1=O
970 s	CCc1cc(C(=O)Nc2ccc(OC)cc2C)nc2ccnn12
645 s	Cc1ccccc1Cn1c(CNC(=O)Cc2ccccc2)nc2ccccc21
604 s	Cc1nc2cccnc2n1CCN1CCN(C(=O)Nc2cccc(Cl)c2)CC1
1030 s	O=C(Nc1ccccc1C(F)(F)F)N1CCCC1c1nc(-c2ccc(F)cc2F)no1 (configuration not stated)
756 s	CCNC(=O)c1nc(Nc2ccc(CC)cc2)c2ccccc2n1
794 s	Cc1[nH]c2ccccc2c1C(=O)C(=O)NC(C)c1ccccc1 (configuration not stated)
1010 s	O=C(Nc1ccc2c(c1)OCO2)N1CCN(c2nc3cccnc3n(Cc3ccccc3)c2=O)CC1
1030 s	Cc1ccc(-c2noc(C3CCCN3C(=O)c3ccccc3F)n2)cc1 (configuration not stated)
985 s	CCOc1ccc(C(O)Cn2ccn3nc(-c4ccccc4C)cc3c2=O)cc1 (configuration not stated)
652 s	COc1ccc(-c2noc(CNC(=O)c3cc(C)nc4ccccc34)n2)cc1OC
1050 s	C=CCN1C(=O)COc2ccc(-c3nc(NC(=O)c4ccccc4C)sc3C)cc21

The remaining lines, values behind:

SMILES	RP-LC retention time
O=C(Nc1ccc2c(c1)OCO2)N1CCC(N2CCN(Cc3ccccc3)C2=O)CC1	787 s
Cc1cc(C)cc(N2CCC(NC(=O)Nc3ccc(F)cc3F)C2=O)c1 (configuration not stated)	904 s
Cc1ccc(-c2nc3cnccn3c2Nc2cccc(Cl)c2C)cc1	1080 s
COc1ccc(N2CCN(C(=O)c3ccc(S(=O)(=O)N4CCCC4)cc3)CC2)nn1	579 s
C=CCNC(=O)c1cc(=O)[nH]c2c(Cl)cccc12	641 s
COc1cc2c(cc1OC)C(C(=O)NCCCN1CCCC1)C(c1cccs1)N(C)C2=O (configuration not stated)	606 s
CCc1nnc(-c2coc(S(=O)(=O)N3CCN(C4CCCCC4)CC3)c2)o1	628 s
CCCC(=O)Nc1ccc2c(c1)CN(C(=O)CC1CCCC1)C(C(=O)N(C)C)C2 (configuration not stated)	716 s
CNC(=O)N1CCCN(C2=NS(=O)(=O)C(c3ccccc3)=C2C)CC1	594 s
Cc1ccc(NC(=O)C2CCCN(c3ccc4cc(S(=O)(=O)N5CCCC5)ccc4n3)C2)cc1C (configuration not stated)	870 s
CCOc1cccc(-c2noc(-c3nnn4c3COC(c3ccc(C)cc3C)C4)n2)c1 (configuration not stated)	643 s
Cc1nc(-c2cc(S(=O)(=O)N3CCC(C(=O)NCCc4cccs4)CC3)c(C)s2)no1	919 s
O=C(O)CNC(=O)C1CCCN(S(=O)(=O)c2ccc(F)cc2)C1 (configuration not stated)	634 s
Cc1ccccc1CC(=O)N1CCCC1c1c(C)noc1C (configuration not stated)	797 s
O=C(C1CCN(c2ncnc3c2oc2ccccc23)CC1)N1CCN(c2ccc(Cl)cc2)CC1	891 s
CCN1CCN(C(=O)CN2C(=O)C3CCCCN3c3ccc(C(=O)N4CCCCC4)cc32)CC1 (configuration not stated)	632 s
CCOC(=O)NCCS(=O)(=O)N1CCN(c2ccc(OC)cc2)CC1	695 s
CCCCn1c(CN2CCOCC2)nc2cc(NC(=O)C(C)C)ccc21	648 s
COc1ccc(NC(=O)Cn2c(=O)c3cc(C4CC4)nn3c3ncccc32)cc1Cl	807 s
COc1cccc(S(=O)(=O)N2CCC3(CC2)CC(OC)CCO3)c1 (configuration not stated)	865 s
